Structures can show the parent of a compound that is named as a salt. Where two headings read alike, the source gives them in different places.
What was measured:
[1] = target: T1, SARS-CoV-2 PLpro (nsp3 1564–1878) (Severe acute respiratory syndrome coronavirus 2, UniProt P0DTD1); test: biochemical; parameters: FRET-quenched peptide (Pro3) cleavage by PLpro, 10 min pre-incubation, slope over 20 min, normalised to no-compound control; details: low concentration screen, read-out: % of control remaining
[2] = target: T1, SARS-CoV-2 PLpro (nsp3 1564–1878); test: biochemical; parameters: FRET-quenched peptide (Pro3) cleavage by PLpro, 10 min pre-incubation, slope over 20 min, normalised to no-compound control; details: high concentration screen, read-out: % of control remaining

CCN[C@H]1CO[C@@H](O[C@H]2[C@H](O[C@H]3C#C/C=C\C#C[C@]4(O)CC(=O)C(NC(=O)OC)=C3/C4=C/CSSSC)O[C@H](C)[C@@H](NO[C@H]3C[C@H](O)[C@H](SC(=O)c4c(C)c(I)c(O[C@@H]5O[C@@H](C)[C@H](O)[C@@H](OC)[C@H]5O)c(OC)c4OC)[C@@H](C)O3)[C@@H]2O)C[C@@H]1OC [Calicheamicin]
remaining activity at 1.25 µM ([1]; Well no.=7060): 94.4% | remaining activity at 3.75 µM ([2]; Well no.=7060): 91.6%

O=C(O)/C=C/c1ccccc1 [Cinnamic acid]
remaining activity at 1.25 µM ([1]; Well no.=7011): 104% | remaining activity at 3.75 µM ([2]; Well no.=7011): 105%

CC[N+](C)(CC)CCOC(=O)C(O)(c1ccccc1)c1ccccc1 [Methylbenactyzium Bromide]
remaining activity at 1.25 µM ([1]; Well no.=7773): 101% | remaining activity at 3.75 µM ([2]; Well no.=7773): 94.7%

O=c1[nH]cnc2c1ncn2[C@H]1CC[C@@H](CO)O1 [Didanosine]
remaining activity at 1.25 µM ([1]; Well no.=1868): 97.7% | remaining activity at 3.75 µM ([2]; Well no.=1868): 104%

Cc1cc([C@@H]2CCCN2C)on1 [ABT-418]
remaining activity at 1.25 µM ([1]; Well no.=307): 97.8% | remaining activity at 3.75 µM ([2]; Well no.=307): 99.2%

CCOc1ccc(NC(C)=O)cc1 [Phenacetin]
remaining activity at 1.25 µM ([1]; Well no.=4948): 98.7% | remaining activity at 3.75 µM ([2]; Well no.=4948): 93.7%

COc1cc(OC)c(C(=O)CCCN2CCCC2)c(OC)c1 [Buflomedil HCl]
remaining activity at 1.25 µM ([1]; Well no.=5296): 101% | remaining activity at 3.75 µM ([2]; Well no.=5296): 97.4%

Nc1ccc2c3c(cccc13)C(=O)NC2=O [4-Amino-1,8-naphthalimide]
remaining activity at 1.25 µM ([1]; Well no.=295): 103% | remaining activity at 3.75 µM ([2]; Well no.=295): 92.9%

O=[N+]([O-])c1cn2c(n1)OC[C@@H](OCc1ccc(OC(F)(F)F)cc1)C2 [PA-824]
remaining activity at 1.25 µM ([1]; Well no.=4709): 104% | remaining activity at 3.75 µM ([2]; Well no.=4709): 104%

COc1cc2ncnc(Nc3cccc(Br)c3)c2cc1OC [PD153035 HCl]
remaining activity at 1.25 µM ([1]; Well no.=4627): 104% | remaining activity at 3.75 µM ([2]; Well no.=4627): 105%

CCCCC/C=C\C\C=C/C=C/C=C/[C@@H](SC[C@H](N)C(=O)NCC(=O)O)[C@@H](O)CCCC(=O)O [Leukotriene D4]
remaining activity at 1.25 µM ([1]; Well no.=4431): 100% | remaining activity at 3.75 µM ([2]; Well no.=4431): 98.6%

Cc1cc(C)c(Nc2ccnc(Nc3ccc(C#N)cc3)n2)c(C)c1 [Dapivirine]
remaining activity at 1.25 µM ([1]; Well no.=5223): 97.4% | remaining activity at 3.75 µM ([2]; Well no.=5223): 98.3%

N/C(=N\N=C\c1ccc(-c2cccc([N+](=O)[O-])c2)o1)N[N+](=O)[O-] [ERK Inhibitor III]
remaining activity at 1.25 µM ([1]; Well no.=2422): 101% | remaining activity at 3.75 µM ([2]; Well no.=2422): 104%

CN1CC[C@H](c2c(O)cc(O)c3c(=O)cc(-c4ccccc4Cl)oc23)[C@H](O)C1 [Alvocidib]
remaining activity at 1.25 µM ([1]; Well no.=2695): 98.7% | remaining activity at 3.75 µM ([2]; Well no.=2695): 104%

CC(C)S(=O)(=O)c1ccc2nccc(Nc3ccc4scnc4c3)c2c1 [GSK-872]
remaining activity at 1.25 µM ([1]; Well no.=6584): 96.3% | remaining activity at 3.75 µM ([2]; Well no.=6584): 108%

C[C@](N)(Cc1ccc(O)c(O)c1)C(=O)O [Methyldopa]
remaining activity at 1.25 µM ([1]; Well no.=1955): 92.2% | remaining activity at 3.75 µM ([2]; Well no.=1955): 92.5%

C[C@H](CCC(=O)O)[C@H]1CC[C@H]2[C@@H]3C(=O)C[C@@H]4CC(=O)CC[C@]4(C)[C@H]3CC(=O)[C@]12C [Dehydrocholic acid]
remaining activity at 1.25 µM ([1]; Well no.=8300): 100% | remaining activity at 3.75 µM ([2]; Well no.=8300): 99%

NC(=O)c1cccnc1 [Nicotinamide (Niacinamide)]
remaining activity at 1.25 µM ([1]; Well no.=4884): 97.9% | remaining activity at 3.75 µM ([2]; Well no.=4884): 94.8%

Cc1ccc(NC(=O)c2cccc(N(C)C)c2)cc1NC(=O)c1ccc(O)cc1 [ZM 336372]
remaining activity at 1.25 µM ([1]; Well no.=5878): 103% | remaining activity at 3.75 µM ([2]; Well no.=5878): 102%

NC1(c2ccc(-c3nc4ccn5c(=O)[nH]nc5c4cc3-c3ccccc3)cc2)CCC1 [MK-2206 2HCl]
remaining activity at 1.25 µM ([1]; Well no.=4625): 102% | remaining activity at 3.75 µM ([2]; Well no.=4625): 102%

CN(CCOc1ccc(CC2SC(=O)NC2=O)cc1)c1ccccn1 (stereo not drawn) [Rosiglitazone (Avandia)]
remaining activity at 1.25 µM ([1]; Well no.=4924): 95.4% | remaining activity at 3.75 µM ([2]; Well no.=4924): 89.9%

CC/C(=C(\c1ccccc1)c1ccc(OCCN(C)C)cc1)c1ccccc1 [Tamoxifen citrate]
remaining activity at 1.25 µM ([1]; Well no.=1184): 97.1% | remaining activity at 3.75 µM ([2]; Well no.=1184): 99.3%

Cc1cccc(NC(=O)Nc2ccc(-c3csc4ncnc(N)c34)cc2)c1 [GDP366]
remaining activity at 1.25 µM ([1]; Well no.=6976): 101% | remaining activity at 3.75 µM ([2]; Well no.=6976): 99.1%

CCCCOc1ccc(C(=O)CCN2CCCCC2)cc1 [Dyclonine (hydrochloride)]
remaining activity at 1.25 µM ([1]; Well no.=8318): 95.9% | remaining activity at 3.75 µM ([2]; Well no.=8318): 94.4%

CN(N=O)c1cc(O)ccc1O [Dephostatin]
remaining activity at 1.25 µM ([1]; Well no.=392): 97.4% | remaining activity at 3.75 µM ([2]; Well no.=392): 97.3%

Cc1c(C)c2c(c(C)c1O)CCC(C)(COc1ccc(CC3SC(=O)NC3=O)cc1)O2 (stereo not drawn) [Troglitazone]
remaining activity at 1.25 µM ([1]; Well no.=1630): 101% | remaining activity at 3.75 µM ([2]; Well no.=1630): 99.4%

c1cncc([C@@H]2CCCCN2)c1 (racemic)
remaining activity at 1.25 µM ([1]; Well no.=3477): 102% | remaining activity at 3.75 µM ([2]; Well no.=3477): 99.3%

CCc1ccc(CCOc2ccc(CC3SC(=O)NC3=O)cc2)nc1 (stereo not drawn) [Pioglitazone]
remaining activity at 1.25 µM ([1]; Well no.=1718): 98.7% | remaining activity at 3.75 µM ([2]; Well no.=1718): 98%

N#C/C(=C\c1ccc(O)c(O)c1)C(=O)NCCCNC(=O)/C(C#N)=C/c1ccc(O)c(O)c1 [Tyrphostin AG 537]
remaining activity at 1.25 µM ([1]; Well no.=1289): 103% | remaining activity at 3.75 µM ([2]; Well no.=1289): 99.7%

OC(CCN1CCCCC1)(c1ccccc1)C1C[C@@H]2C=C[C@H]1C2 (stereo partly drawn) [Biperiden (Hydrochloride)]
remaining activity at 1.25 µM ([1]; Well no.=7434): 97.8% | remaining activity at 3.75 µM ([2]; Well no.=7434): 100%

CN(C)CCC(c1ccc(Br)cc1)c1ccccn1 (stereo not drawn) [Brompheniramine]
remaining activity at 1.25 µM ([1]; Well no.=5292): 99% | remaining activity at 3.75 µM ([2]; Well no.=5292): 96.1%

O=C(Nc1ncc(-c2cc(C(F)F)nn2-c2c(Cl)cccc2Cl)s1)C1CC1 [BMS-3]
remaining activity at 1.25 µM ([1]; Well no.=3039): 95.8% | remaining activity at 3.75 µM ([2]; Well no.=3039): 96.4%

CCCN1C[C@H](CSC)C[C@@H]2c3cccc4[nH]cc(c34)C[C@H]21 [Pergolide methanesulfonate]
remaining activity at 1.25 µM ([1]; Well no.=1257): 112% | remaining activity at 3.75 µM ([2]; Well no.=1257): 111%

BrC1C(Br)C(Br)C(Br)C(Br)C1Br (stereo not drawn) [1,2,3,4,5,6-Hexabromocyclohexane - 1,2,3,4,5,6-Hexabromocyclohexane]
remaining activity at 1.25 µM ([1]; Well no.=2524): 96.3% | remaining activity at 3.75 µM ([2]; Well no.=2524): 97.7%

COc1cc2ncc(-c3ccccc3)nc2cc1OC [Tyrphostin AG 1296]
remaining activity at 1.25 µM ([1]; Well no.=1477): 97.5% | remaining activity at 3.75 µM ([2]; Well no.=1477): 97.9%

CCOC(=O)[C@H](CCc1ccccc1)N[C@@H](C)C(=O)N1Cc2ccccc2C[C@H]1C(=O)O [Quinapril (hydrochloride)]
remaining activity at 1.25 µM ([1]; Well no.=7828): 96.3% | remaining activity at 3.75 µM ([2]; Well no.=7828): 95%
